Values joined by “and” are separate entries in the source; they are usually repeats but may differ in a detail not shown here. Identical values can stand only once. “Also recorded” adds a separate entry of the source.

The nature of data set [1]: Optical photos of bile salt solutions as a function of temperature, with crossed polarized filters. The format is physicochemical. Conditions: 25 mM in PBS; for liquid crystal phase: all temperatures, crossed polarized filter; for appearance of solution: temperatures from 90° C. to -15° C. As for the experimental part:
(§1) Viscosity profiles, critical micelle concentration (CMC), and optical photos of bile salts. The critical micelle concentration of a colloid or surfactant is the concentration of surfactant above which micelles form, and any additional surfactant added to the system will form micelles. The viscosity profile of NaC, NaDC, NaCC, and NaLC at a concentration of 25 mM in 1x PBS were determined by an AR2000 rheometer from TA Instruments in New Castle, PA, with a 40 mm aluminum parallel plate at 25° C. The samples were measured from 0.1 to100 s^-1 shear rate after pre-shearing at 50 s^-1 for 30 seconds with or without an equilibrium time of 30 min. The CMCs were determined by a UV-vis spectroscopy method with slight modifications described in Reis, S.; Moutinho, C. G.; Matos, C.; de Castro, B.; Gameiro, P.; Lima, J. L., “Noninvasive methods to determine the critical micelle concentration of some bile acid salts,” Anal Biochem 2004, 334 (1), 117-26, which is incorporated herein by reference. NaC, NaDC, and NaCC were dissolved in water at concentrations from 1 to 25 mM. The absorbance spectra from 200 to 300 nm were collected by an Evolution 201 spectrometer from Thermo Scientific, Waltham, MA to find the peak absorbance. The CMC was determined from the sudden change of peak absorbance as concentration increases. The optical photos of bile salt in 1X PBS solutions were taken after incubation at each designed temperature for 20 minutes.

The nature of data set [2]: Ice recrystallization inhibition (IRI) "splat" assay. The settings on record: for IRI activity: splat assay, 30 min incubation at -8° C., 12.5-100 mM; for %MLGS compared with PEG: at 40 mg/mL. As for the experimental part:
Ice recrystallization inhibition (IRI) activity of bile salts. NaC, NaDC, NaCC, and NaLC were tested for IRI activity at concentrations of 12.5, 25.0, 50.0, and 100 mM in 1x PBS using the “splat” assay test known and described in Knight, C. A.; Hallett, J.; Devries, A. L., “Solute effects on ice recrystallization: An assessment technique,” Cryobiology 1988, 25 (1), 55-60, which is incorporated herein by reference. 100 mM NaLC was not tested due to its gelation. A droplet of the sample was gently squeezed out of a syringe with a 21-gauge needle from Exelint, Redondo Beach, CA, and was dripped from 1.4 m above onto a microscope slide sitting on a metal block surrounded by dry ice. Upon hitting the slide surface, the droplet instantaneously froze into an ice wafer. The ice wafer was immediately transferred into the chamber of a cryostage system from Instec, Boulder, CO, for incubation. Pictures were taken after 30 min incubation at -8° C. by a BX51 polarized microscope from Olympus, Tokyo, Japan, equipped with a DP70 camera from Olympus. PEG was tested as a negative control at concentrations of 5, 10, 20, and 40 mg/mL in 1x PBS to match the mass concentrations (w/v) of bile salts. PVA was tested as a positive control at low concentrations, including 0.05, 0.10, 0.20, and 0.40 mg/mL in 1x PBS, because of its high IRI activity. The largest lengths of the five largest ice crystals in one picture were measured by Image J software from National Institutes of Health, Bethesda, MD. Each sample was performed in triplicate. Each replication had five pictures randomly selected, representing a total of 75 ice crystals for each sample. The percent mean largest grain size (%MLGS) was calculated by averaging three replications divided by the blank. Data are reported as the mean ± standard derivation of three replications. The %MLGS calculations are plotted in FIG. 3 against the concentrations of the bile acids and the controls.

Data set [3] is described as follows: Atomic force microscopy (AFM) analysis of bile salt solutions. The format is physicochemical. The settings on record: 25 mM sample, dried on mica. As for the experimental part:
Atomic force microscopy (AFM) analysis of bile salt solutions. The AFM procedure was followed as set forth in Schefer, L.; Adamcik, J.; Diener, M.; Mezzenga, R., “Supramolecular chiral self-assembly and supercoiling behavior of carrageenans at varying salt conditions,” Nanoscale 2015, 7 (39), 16182-16188, which is incorporated herein by reference. Briefly, 0.01% (v/v) APTES in water was incubated on a freshly peeled mica surface for 1 min. APTES solution was then washed away using water on a P6700 spin coater from Specialty Coating Systems Inc., Indianapolis, IN, at 2,000 rpm. About 200 µL of 25 mM sample was loaded on the mica surface and incubated for 30 seconds. Then the mica was rinsed with 1.0 mL water drop-wise and dried in a vacuum chamber at room temperature. All mica surfaces were observed by a Multimode VIII AFM from Bruker, Santa Barbara, USA, in ScanAsyst-Air mode. All images were flattened using Nanoscope Analysis software from Bruker, Santa Barbara, USA, before analyzing by an ImageJ instrument from National Institutes of Health, Bethesda, MD.

Data set [4] in a line: Ice growth kinetics of NaLC. The settings on record: 1x PBS, -8° C., up to 60 min. As for the experimental part: Ice growth kinetics of NaLC. The ice growth kinetics in the presence of NaLC at 12.5, 25, and 50 mM was determined at -8° C. in 1x PBS. Five pictures were taken every 5 min for a total time of 60 min. %MLGS at each time was calculated against its blank control at the same time.

Data set [5] in a line: Viscosity profile by rheometer / gel formation. The format is physicochemical. The settings on record: for viscosity: 25 mM in 1x PBS, 25° C. As for the experimental part: as §1
Data set [6] is described as follows: Ice recrystallization inhibition (IRI) "splat" assay. Conditions: concentrations close to or below literature CMC value, PBS (FIG. 6D).

For the molecule `C[C@H](CCC(=O)[O-])[C@H]1CC[C@H]2[C@@H]3[C@H](O)C[C@@H]4C[C@H](O)CC[C@]4(C)[C@H]3C[C@H](O)[C@]12C.[Na+]` [NaC, sodium cholate], in data set [1], the “temperature at which ices were formed” value is -15 °C, the liquid crystal phase result is recorded as “no liquid crystal phase was observed” and the appearance of solution entry is “clear”. For the same molecule, the IRI activity result in data set [2] (1x PBS) is recorded as “not IRI active”.
On to `C[C@H](CCC(=O)[O-])[C@H]1CC[C@H]2[C@@H]3[C@H](O)C[C@@H]4C[C@H](O)CC[C@]4(C)[C@H]3CC[C@]12C.[Na+]` [NaCC, sodium chenodeoxycholate], for which, in data set [1], the “temperature at which ices were formed” value was -15 °C, the liquid crystal phase result was “no liquid crystal phase was observed” and the appearance of solution entry is recorded as “clear”. Moreover, in data set [2] (1x PBS, 30 min at -8° C.), the “%MLGS compared with PEG” value is on record as “smaller %MLGS values than PEG”. Besides, the IRI activity entry in data set [2] (1x PBS) is reported as “weak ice recrystallization inhibitor”.
`C[C@H](CCC(=O)[O-])[C@H]1CC[C@H]2[C@@H]3CC[C@@H]4C[C@H](O)CC[C@]4(C)[C@H]3CC[C@]12C.[Na+]` [NaLC, sodium lithocholate]: in data set [3], the “helical structure by AFM” value is “helical structure”, the helix length is reported as 1.72 ± 0.37 µm, the helix turn was 0.19 ± 0.04 µm and the helix width turned out to be 0.14 ± 0.01 µm. The appearance of solution entry in data set [1] is given as “turbid”. The ice growth result in data set [4] (12.5 mM) is listed as “IRI active but did not stop the ice growth completely”. Also, the ice growth result in data set [4] (25.0 mM) is “completely stopped the growth of ice crystals; also recorded: block the growth of ice crystals”. For the same molecule, in data set [4] (50.0 mM), the ice growth result is “completely stopped the growth of ice crystals”. For the same molecule, the “ice crystal size compared to blank 1x PBS and negative control PEG” value in data set [2] (10 mg/mL (25 mM), 30 min at -8° C.) is “significantly smaller ice crystals”. The “ice crystal sizes compared with positive control PVA” value in data set [2] (10 mg/mL NaLC, 1x PBS, 30 min at -8° C.) is given as “comparable to those in the positive control of 1 mg/mL PVA”. Also, the “concentration at which IRI active” value in data set [2] (1x PBS, 30 min at -8° C.) was “around 10 mg/mL and ~25 mM”. Further, in data set [2] (1x PBS), the IRI activity entry was “relatively potent IRI; also recorded: most potent ice recrystallization inhibitor”. Moreover, in data set [5] (100 mM, after sample preparation), the gel formation entry was “gel was formed”. Moreover, in data set [5] (fresh-prepared), the viscosity result is recorded as “highest viscosity among four bile salts”. Further, the “IRI activity (%MLGS)” value in data set [6] was “No IRI activity was observed”.
As to sodium deoxycholate [NaDC], the appearance of solution entry in data set [1] is “clear”. The “%MLGS compared with PEG” value in data set [2] (1x PBS, 30 min at -8° C.) is listed as “smaller %MLGS values than PEG”. Further, the IRI activity entry in data set [2] (1x PBS) is “weak ice recrystallization inhibitors”. Also, the viscosity result in data set [5] (after 30-min equilibrium) is listed as “increased significantly to a level similar to that of NaLC”.
